Literature values as cited in patent US20210346549A1, “Non-Contact Sanitizing Products and Elements” (Segan Industries, Inc., priority 2020, published 2021).

What was measured:
[1] = tested on: sporicidal, bactericidal, virulcide, and fungicidal; details: low concentrations
[2] = vaccine content versus toxic quantity
[3] = tested on: bacterial spores; details: gas-aerosol concentration of 15 to 20 mg/m3, relative humidity of about 80%
[4] = tested on: vegetative bacteria; details: gas-aerosol concentration of 15 to 20 mg/m3, relative humidity of about 80%
[5] = tested on: coronavirus 229E; details: 1-minute contact time; free chlorine concentration of 1,000 ppm and 5,000 ppm

CC(=O)OO [Peracetic acid]
concentration at which sporicidal, bactericidal, virulcide, and fungicidal [1]: < 0.3%

C=O [formaldehyde]
quantity present in vaccines lower than that necessary to induce toxicity in experimental animals [2]: at least 600 fold

O=CCCCC=O [glutaraldehyde]
decimal reduction time [3]: less than 45 min
decimal reduction time [4]: less than 5 min

OCl [sodium hypochlorite]
virucidal efficacy against coronavirus 229E [5]: effective
